Patent US12624067B2, “Cyclic peptide, cell scaffold material, cell separating material, and medium” (FUJIFILM Corporation, priority 2019, dated 2026)
pKd: −log10 of the molar value. Numbered stars: 1 amine (or outer) side, 2 acyl side, 3 side chain; on linkers, the order of the positions; unused ones are H or OH. Bridge positions count the residues as written; N and C are the ends. Square brackets hold non-standard residues; d marks the D form. Peptide text beside a SMILES is read from it. hCys = N[C@@H](CCS)C(=O)O; Orn = NCCC[C@H](N)C(=O)O; Dab = NCC[C@H](N)C(=O)O; Dap = NC[C@H](N)C(=O)O; X1 = O=C(C[*:1])[*:2]; X2 = O=C(C[*:2])[*:1]

Legend:
human integrin αvβ5 = human integrin αvβ5 (Homo sapiens, UniProt P06756+P18084); experiment: Evaluation of integrin binding property (surface plasmon resonance, Biacore 3000, immobilized cyclic peptide); settings: peptide immobilized on CM5 sensor chip; human integrin αvβ5 30-1,000 nM, 25° C., HEPES buffer with 5 mM magnesium chloride; read-out: Integrin binding property (dissociation constant)
Protocol: A commercially available CM5 sensor chip (a carboxymethyl dextran introduction type, manufactured by GE Healthcare) was set in a surface plasmon resonance apparatus (product name: Biacore 3000, manufactured by GE Healthcare), the sensor was stabilized at a flow rate of 10 μL/min of a 4-(2-hydroxyethyl)-1-piperazineethanesulfonic acid (HEPES) buffer solution (20 mM HEPES-HCl, 150 mM NaCl, pH 7.4) for surface plasmon resonance (SPR), and 70 μL of a mixed aqueous solution of 0.2 M 1-(3-dimethylaminopropyl)-3-ethylcarbodiimide (EDC) and 0.04 M N-hydroxysuccinimide (NHS) was added thereto. Then, 300 μL of the sample solution of each of the above cyclic peptides diluted to 0.2 g/L with the HEPES buffer solution was supplied to the sensor chip, blocking treatment was subsequently carried out with an ethanolamine solution, and washing was carried out with a sodium hydroxide aqueous solution, whereby immobilization was carried out. However, only for the cyclic peptide 22, in which the number of lysine residues having an amino group as the immobilizing functional group was 1, the sample solution to be supplied to the sensor chip was set to 5,000 μL instead of 300 μL. Similarly; 70 μL of the mixed aqueous solution of 0.2 M EDC and 0.04 M NHS was added to another flow channel of the same sensor chip without immobilizing the sample, and then blocking treatment and washing treatment were carried out. Hereinafter, the obtained immobilization-treated sensor chip is referred to as an “immobilization-treated sensor chip A”.
After adding human integrin αvβ5 for 10 minutes at 25° C., which was diluted to 30 nM using a HEPES buffer solution to which magnesium chloride was added to 5 mM, in each flow channel of the immobilization-treated sensor chip A prepared in (1) above, the same HEPES buffer solution (containing 5 mM magnesium chloride) was allowed to flow as a running buffer for 30 minutes, and measurement was carried out with Biacore 3000.
Then, a regeneration treatment of removing human integrin αvβ5 was carried out by allowing a 0.5 M EDTA aqueous solution to flow through each flow channel for 10 minutes. Further, the above-described measurement process consisting of adding integrin for 10 minutes, allowing a running buffer to flow for 30 minutes, carrying out measurement with Biacore 3000, and carrying out regeneration treatment with 0.5 M EDTA aqueous solution was carried out in the same manner for 100 nM human integrin αvβ5, 300 nM human integrin αvβ5, and 1,000 nM human integrin αvβ5. Dissociation constant between the cyclic peptide and human integrin αvβ5 was calculated from the difference between the value measured by Biacore 3000 in the flow channel immobilized with the cyclic peptide and the value measured by Biacore 3000 in the flow channel unimmobilized with the cyclic peptide, in a case where each concentration of human integrin αvβ5 was allowed to flow; and the integrin binding property was evaluated according to the following evaluation standards. It is preferable that the evaluation result satisfies the evaluation standard A, B, or C.

[1] = Evaluation of molecule stability (alkali treatment, LC/MS residual rate); type: physicochemical; settings: 500 μM peptide plus equivalent of 1 M sodium hydroxide, 15° C., 20 minutes, LC/MS peak area
Protocol: The molecule stability of the cyclic peptide was evaluated by analyzing the alkali-treated cyclic peptide aqueous solution by liquid chromatography mass spectroscopy (LC/MS).
The alkali treatment was carried out by the following method. A 500 μM cyclic peptide aqueous solution was prepared, an equivalent of 1 M sodium hydroxide aqueous solution was added to this aqueous solution, and the resultant mixture was incubated at 15° C. for 20 minutes to obtain an alkali-treated cyclic peptide aqueous solution. The cyclic peptide residual rate was calculated by setting the total area of all peaks of the cyclic peptide before alkali treatment in LC/MS to 100% and determining the proportion of the total area of all peaks in LC/MS of the alkali-treated cyclic peptide aqueous solution, and the molecule stability was evaluated according to the following evaluation standards. It is preferable that the evaluation result satisfies the evaluation standard A, B, or C.
The conditions of the LC/MS used for the evaluation of molecule stability were set as follows. • LC apparatus: Prominence series (pump, column oven, autosampler, detector) (manufactured by Shimadzu Corporation) • MS detector: LC/MS2010EV (manufactured by Shimadzu Corporation) • Column: Cadenza CD-C18, inner diameter 2.0 mm×length 250 mm, particle size: 3 μm (manufactured by Imtakt Corporation) • Eluent A: a solution (pH 3) containing 10 mM ammonium formate as a solute, where the solvent is 100% water. • Eluent B: a solution (pH 3) containing 10 mM ammonium formate as a solute, where the solvent is acetonitrile/water=90/10. • Flow rate: 0.2 mL/min • Injection volume: 4 μL • Gradient: 0% to 30%: Eluent B (0 to 30 minutes), 100%: Eluent B (30 to 40 minutes), 0%: Eluent B (40 to 60 minutes)(B indicates the eluent B) • Column temperature: 45° C. • Ionization method: electrospray ionization (ESI) positive, ESI negative

Sequence of human integrin αvβ5 (P06756 31-889 limits assumed): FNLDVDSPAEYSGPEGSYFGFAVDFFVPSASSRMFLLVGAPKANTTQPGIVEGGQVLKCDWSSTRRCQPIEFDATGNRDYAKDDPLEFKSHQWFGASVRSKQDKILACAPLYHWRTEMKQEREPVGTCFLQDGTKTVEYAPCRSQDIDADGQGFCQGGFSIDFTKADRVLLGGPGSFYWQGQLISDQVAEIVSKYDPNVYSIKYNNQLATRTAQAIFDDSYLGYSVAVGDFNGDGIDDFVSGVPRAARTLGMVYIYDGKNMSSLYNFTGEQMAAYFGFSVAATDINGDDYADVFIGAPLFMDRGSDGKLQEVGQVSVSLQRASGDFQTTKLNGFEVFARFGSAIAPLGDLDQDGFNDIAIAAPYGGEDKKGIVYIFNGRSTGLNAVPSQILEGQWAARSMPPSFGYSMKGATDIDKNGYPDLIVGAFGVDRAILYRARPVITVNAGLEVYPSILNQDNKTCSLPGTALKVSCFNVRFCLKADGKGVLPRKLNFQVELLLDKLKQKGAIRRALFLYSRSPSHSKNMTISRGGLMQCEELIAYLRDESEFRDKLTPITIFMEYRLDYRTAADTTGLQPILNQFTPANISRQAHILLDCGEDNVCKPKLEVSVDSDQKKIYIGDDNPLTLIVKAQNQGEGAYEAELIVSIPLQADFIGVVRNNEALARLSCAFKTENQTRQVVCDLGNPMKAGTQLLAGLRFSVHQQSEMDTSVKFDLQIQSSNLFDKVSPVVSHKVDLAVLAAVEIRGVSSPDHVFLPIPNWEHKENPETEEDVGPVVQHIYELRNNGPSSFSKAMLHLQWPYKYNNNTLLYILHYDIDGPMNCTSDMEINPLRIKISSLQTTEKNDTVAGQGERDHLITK
Sequence of human integrin αvβ5 (P06756 891-1048 partner limits assumed): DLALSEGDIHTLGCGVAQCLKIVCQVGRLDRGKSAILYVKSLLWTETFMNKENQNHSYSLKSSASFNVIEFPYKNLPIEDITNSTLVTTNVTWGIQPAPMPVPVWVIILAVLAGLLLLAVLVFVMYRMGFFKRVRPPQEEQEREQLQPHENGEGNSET
Sequence of human integrin αvβ5 (P18084 24-799): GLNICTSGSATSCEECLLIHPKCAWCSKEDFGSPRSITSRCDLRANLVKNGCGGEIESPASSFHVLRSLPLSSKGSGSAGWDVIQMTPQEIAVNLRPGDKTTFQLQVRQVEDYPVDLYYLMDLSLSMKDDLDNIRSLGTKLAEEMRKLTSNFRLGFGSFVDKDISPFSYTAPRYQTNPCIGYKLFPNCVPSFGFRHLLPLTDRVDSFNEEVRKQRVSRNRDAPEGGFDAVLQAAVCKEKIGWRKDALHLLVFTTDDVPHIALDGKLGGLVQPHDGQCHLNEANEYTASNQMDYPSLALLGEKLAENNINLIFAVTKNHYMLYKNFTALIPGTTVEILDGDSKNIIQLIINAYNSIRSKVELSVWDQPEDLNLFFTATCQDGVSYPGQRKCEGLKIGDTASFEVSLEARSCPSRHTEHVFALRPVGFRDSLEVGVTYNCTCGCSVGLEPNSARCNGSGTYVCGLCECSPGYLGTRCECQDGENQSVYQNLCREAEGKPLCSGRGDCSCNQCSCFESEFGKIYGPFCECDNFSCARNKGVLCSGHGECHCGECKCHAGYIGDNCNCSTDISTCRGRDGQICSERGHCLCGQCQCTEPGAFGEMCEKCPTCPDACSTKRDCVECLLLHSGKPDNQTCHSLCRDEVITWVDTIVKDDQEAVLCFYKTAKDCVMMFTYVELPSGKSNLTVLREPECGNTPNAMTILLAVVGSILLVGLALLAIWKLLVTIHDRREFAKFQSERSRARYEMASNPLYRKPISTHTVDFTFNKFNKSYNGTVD

| pKd (human integrin αvβ5) | SMILES | Molecule stability (cyclic peptide residual rate) [1] |
| --- | --- | --- |
| 7.00 to 7.30 | CC[C@H](C)[C@@H]1NC(=O)CSCC[C@@H](C(=O)N[C@@H](CCCCN)C(=O)N[C@@H](CCCCN)C(=O)N[C@@H](CCCCN)C(=O)O)NC(=O)[C@H](Cc2ccccc2)NC(=O)[C@@H]2CCSCC(=O)NC[C@H](NC1=O)C(=O)N[C@@H](CCCNC(=N)N)C(=O)NCC(=O)N[C@@H](CC(=O)O)C(=O)N2 [Cyclic peptide 1] ({CH2CO}-I[Dap]RGD[hCys]F[hCys]KKK-OH; linker 2-6 via X2; thioether N-8) | A (The residual rate of the cyclic peptide is 70% or more.) |
| 6.70 to 7.00 | CC[C@H](C)[C@@H]1NC(=O)CSCC[C@@H](C(=O)N[C@@H](CCCCN)C(=O)N[C@@H](CCCCN)C(=O)N[C@@H](CCCCN)C(=O)O)NC(=O)[C@H](Cc2ccccc2)NC(=O)[C@@H]2CCSCC(=O)NCC[C@H](NC1=O)C(=O)N[C@@H](CCCNC(=N)N)C(=O)NCC(=O)N[C@@H](CC(=O)O)C(=O)N2 [Cyclic peptide 2] ({CH2CO}-I[Dab]RGD[hCys]F[hCys]KKK-OH; linker 2-6 via X2; thioether N-8) | A (The residual rate of the cyclic peptide is 70% or more.) |
| > 7.30 | CC[C@H](C)[C@@H]1NC(=O)CSCC[C@@H](C(=O)N[C@@H](CCCCN)C(=O)N[C@@H](CCCCN)C(=O)N[C@@H](CCCCN)C(=O)O)NC(=O)[C@H](Cc2ccccc2)NC(=O)[C@@H]2CCSCC(=O)NCCC[C@H](NC1=O)C(=O)N[C@@H](CCCNC(=N)N)C(=O)NCC(=O)N[C@@H](CC(=O)O)C(=O)N2 [Cyclic peptide 3] ({CH2CO}-I[Orn]RGD[hCys]F[hCys]KKK-OH; linker 2-6 via X2; thioether N-8) | A (The residual rate of the cyclic peptide is 70% or more.) |
| 7.00 to 7.30 | CC[C@H](C)[C@@H]1NC(=O)CSCC[C@@H](C(=O)N[C@@H](CCCCN)C(=O)N[C@@H](CCCCN)C(=O)N[C@@H](CCCCN)C(=O)O)NC(=O)[C@H](Cc2ccccc2)NC(=O)[C@@H]2CCSCC(=O)NCCCC[C@H](NC1=O)C(=O)N[C@@H](CCCNC(=N)N)C(=O)NCC(=O)N[C@@H](CC(=O)O)C(=O)N2 [Cyclic peptide 4] ({CH2CO}-IKRGD[hCys]F[hCys]KKK-OH; linker 2-6 via X2; thioether N-8) | A (The residual rate of the cyclic peptide is 70% or more.) |
| 7.00 to 7.30 | CC[C@H](C)[C@@H]1NC(=O)CSCC[C@@H](C(=O)N[C@@H](CCCCN)C(=O)N[C@@H](CCCCN)C(=O)N[C@@H](CCCCN)C(=O)O)NC(=O)[C@H](Cc2ccccc2)NC(=O)[C@@H]2CNC(=O)CSCC[C@H](NC1=O)C(=O)N[C@@H](CCCNC(=N)N)C(=O)NCC(=O)N[C@@H](CC(=O)O)C(=O)N2 [Cyclic peptide 5] ({CH2CO}-I[hCys]RGD[Dap]F[hCys]KKK-OH; linker 2-6 via X1; thioether N-8) | A (The residual rate of the cyclic peptide is 70% or more.) |
|  | N=C(N)NCCC[C@@H]1NC(=O)[C@@H]2CNC(=O)CSCC[C@H](NC(=O)[C@H](CC(=O)O)NC(=O)CNC1=O)C(=O)N[C@@H](Cc1ccccc1)C(=O)N[C@H](C(=O)N[C@@H](CCCCN)C(=O)N[C@@H](CCCCN)C(=O)N[C@@H](CCCCN)C(=O)O)CCSCC(=O)N[C@@H](CCCCN)C(=O)N2 [Cyclic peptide 21] ({CH2CO}-K[Dap]RGD[hCys]F[hCys]KKK-OH; linker 2-6 via X2; thioether N-8; N-terminus and C-terminus assumed) | A (The residual rate of the cyclic peptide is 70% or more.) |
|  | N=C(N)NCCC[C@@H]1NC(=O)[C@@H]2CSSC[C@H](NC(=O)[C@H](CC(=O)O)NC(=O)CNC1=O)C(=O)N[C@@H](Cc1ccccc1)C(=O)N[C@H](C(=O)N[C@@H](CCCCN)C(=O)N[C@@H](CCCCN)C(=O)N[C@@H](CCCCN)C(=O)O)CSCC(=O)N[C@@H](CCCCN)C(=O)N2 [Cyclic peptide 48, reference compound] ({CH2CO}-KCRGDCFCKKK-OH; disulfide 2-6; thioether N-8; N-terminus and C-terminus assumed) | D (The residual rate of the cyclic peptide is less than 30%.) |
